This series can be described thus: Decarboxylation/stability of cyclic carbonate 11 in deuterated buffer. The class given is physicochemical. The note with it: for t50 (decarboxylation of 11 to 12): deuterated buffer/DMSO-d6 95:5, rt. On the procedure: Figure 3 (A) Comparison of ring-opening rate constants (k^O) for the exchange reactions of 2, 3, and 11–18 with 10 (Table 1); (a) deuterated buffer/DMSO-d6 95:5, rt, t50 = <15 min, 84 min, 18 h, and ≫24 h at pD 7.9, 6.7, 5.4, and 4.7, respectively. (B) Dynamic covalent ring opening of CTO 3 and thiol 10 to give product 9. (C) Original kinetic data for the equilibration of 3 with 10 at pD 2.7 in deuterated phosphate buffer/DMSO-d6 9:1. Gold triangles: 3; purple circles: 9; filled diamonds: 10; empty diamonds: homo-disulfide of 10. (D) Dependence of K (filled circles) and rate constants (relative, k at 90% D2O as 1, k^O filled diamonds, k^C empty diamonds) for 3 with 10 at pD 2.7 (estimate) on solvent polarity. (E–G) Fluoride complexes of 1,2-dithiane 1,1-dioxide (E), 1,2-dithiane 1-oxide (F), and 1,2-dithiane (G), calculated with M06-2X/6-311++G** (green: F^–, yellow: S, red: O, gray: C, white: H). (H, I) Chloride complexes of 3 (H) and 1 (I, green: Cl^–, in parentheses: bond length for F^–). (J) Fragmentation of 11 with 10; (b) 10, DMSO-d6, rt.
The strained cyclic carbonate 11 was considered to accelerate CTO opening and further stabilize the opened form (entry 12). However, at pD 7.9, carbonate 11 decarboxylated within 15 min to CTO alkene 12. This degradation decelerated with decreasing pD to afford stable carbonate 11 for at least 1 day at pD 4.7 (Figure 3A). Ring opening of 11 was too fast even at pD 2.7, it proceeded to near completion with a >100× higher rate than 3. Decarboxylated alkene 12 reacted also very fast, the apparently lower rate is the consequence of more favorable ring closure back to 12 due to preorganization by the cis alkene (entry 13). The alternative Michael addition of thiol 10 to alkene 12 was not observed (Figure S12).

Molecules are shown by their SMILES.

With `O=C1O[C@H]2CSS(=O)(=O)C[C@H]2O1` [Compound 11], the “t50 (decarboxylation of 11 to 12)” value is, setting by setting: (pD 4.7) > 24 h; (pD 5.4) 18 h; (pD 6.7) 1.4 h; (pD 7.9) < 0.25 h. Moreover, for the setting “pD 4.7”, the time stable result is reported as “at least 1 day”. For the setting “pD 7.9”, the “time of decarboxylation to CTO alkene 12” value was ≤ 15 min.

Values taken from publication PMC9088311, “Cyclic Thiosulfonates for Thiol-Mediated Uptake: Cascade Exchangers, Transporters, Inhibitors” (JACS Au, 2022).
